# From ChEMBL document CHEMBL4334508, “Oleanolic Acid Derivatives as Potential Inhibitors of HIV-1 Protease” (J Nat Prod, 2019)
# Target: Protease (Human immunodeficiency virus 1, UniProt Q9YQ12)
# Test: Inhibition of HIV1 protease expressed in Escherichia coli using Abz-Ala-Arg-Val-Nle-Tyr(NO2)-Glu-Ala-Nle-NH2 peptide as substrate by FRET assay
# Protease, sequence (Q9YQ12 whole entry): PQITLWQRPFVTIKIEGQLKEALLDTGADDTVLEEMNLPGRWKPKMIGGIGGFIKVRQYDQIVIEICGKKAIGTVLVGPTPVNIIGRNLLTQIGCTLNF
row,IC50 [µM],Compound
1,> 50,CCCCCCCCCCCC(=O)O[C@H]1CC[C@]2(C)[C@H]3CC=C4[C@@H]5CC(C)(C)CC[C@]5(C(=O)NCCCC(=O)N[C@@H](C)C(=O)O)CC[C@@]4(C)[C@]3(C)CC[C@H]2C1(C)C
2,24.1,C[C@H](NC(=O)CCCCCNC(=O)[C@]12CCC(C)(C)C[C@H]1C1=CC[C@@H]3[C@@]4(C)CC[C@H](OC(=O)CC(C)(C)CC(=O)O)C(C)(C)[C@@H]4CC[C@@]3(C)[C@]1(C)CC2)C(=O)O
3,38.8,CC(C)(CC(=O)O)CC(=O)O[C@H]1CC[C@]2(C)[C@H]3CC=C4[C@@H]5CC(C)(C)CC[C@]5(C(=O)NCCCCCC(=O)NCC(=O)O)CC[C@@]4(C)[C@]3(C)CC[C@H]2C1(C)C
4,> 50,C[C@H](NC(=O)CCCCCCCCCCNC(=O)[C@]12CCC(C)(C)C[C@H]1C1=CC[C@@H]3[C@@]4(C)CC[C@H](OC(=O)c5ccccc5)C(C)(C)[C@@H]4CC[C@@]3(C)[C@]1(C)CC2)C(=O)O
5,6.6,C[C@H](NC(=O)CCCNC(=O)[C@]12CCC(C)(C)C[C@H]1C1=CC[C@@H]3[C@@]4(C)CC[C@H](OC(=O)CCCC(=O)O)C(C)(C)[C@@H]4CC[C@@]3(C)[C@]1(C)CC2)C(=O)O
6,> 50,CCCCCC(=O)O[C@H]1CC[C@]2(C)[C@H]3CC=C4[C@@H]5CC(C)(C)CC[C@]5(C(=O)NCCCCCC(=O)NCC(=O)O)CC[C@@]4(C)[C@]3(C)CC[C@H]2C1(C)C
7,> 50,CC(C)(CC(=O)O)CC(=O)O[C@H]1CC[C@]2(C)[C@H]3CC=C4[C@@H]5CC(C)(C)CC[C@]5(C(=O)NCCCC(=O)NCC(=O)O)CC[C@@]4(C)[C@]3(C)CC[C@H]2C1(C)C
8,> 50,CCCCCC(=O)O[C@H]1CC[C@]2(C)[C@H]3CC=C4[C@@H]5CC(C)(C)CC[C@]5(C(=O)NCCCCCC(=O)N[C@@H](C)C(=O)O)CC[C@@]4(C)[C@]3(C)CC[C@H]2C1(C)C
9,> 50,CC(=O)O[C@H]1CC[C@]2(C)[C@H]3CC=C4[C@@H]5CC(C)(C)CC[C@]5(C(=O)NCCCCCCCCCCC(=O)NCC(=O)O)CC[C@@]4(C)[C@]3(C)CC[C@H]2C1(C)C
10,> 50,CCCCCCCCCCCC(=O)O[C@H]1CC[C@]2(C)[C@H]3CC=C4[C@@H]5CC(C)(C)CC[C@]5(C(=O)NCCCCCCCCCCC(=O)NCC(=O)O)CC[C@@]4(C)[C@]3(C)CC[C@H]2C1(C)C
11,31,CCC(=O)O[C@H]1CC[C@]2(C)[C@H]3CC=C4[C@@H]5CC(C)(C)CC[C@]5(C(=O)NCCCCCC(=O)N[C@@H](C)C(=O)O)CC[C@@]4(C)[C@]3(C)CC[C@H]2C1(C)C
12,> 50,CC(C)(CC(=O)O)CC(=O)O[C@H]1CC[C@]2(C)[C@H]3CC=C4[C@@H]5CC(C)(C)CC[C@]5(C(=O)NCCCCCCCCCCC(=O)NCC(=O)O)CC[C@@]4(C)[C@]3(C)CC[C@H]2C1(C)C
13,> 50,C[C@H](NC(=O)CCCCCNC(=O)[C@]12CCC(C)(C)C[C@H]1C1=CC[C@@H]3[C@@]4(C)CC[C@H](OC(=O)c5ccccc5)C(C)(C)[C@@H]4CC[C@@]3(C)[C@]1(C)CC2)C(=O)O
14,> 50,CCCCCCCCCCCC(=O)O[C@H]1CC[C@]2(C)[C@H]3CC=C4[C@@H]5CC(C)(C)CC[C@]5(C(=O)NCCCCCC(=O)N[C@@H](C)C(=O)O)CC[C@@]4(C)[C@]3(C)CC[C@H]2C1(C)C
15,> 50,CC(=O)O[C@H]1CC[C@]2(C)[C@H]3CC=C4[C@@H]5CC(C)(C)CC[C@]5(C(=O)NCCCCCCCCCCC(=O)N[C@@H](C)C(=O)O)CC[C@@]4(C)[C@]3(C)CC[C@H]2C1(C)C
16,47.1,CC(=O)O[C@H]1CC[C@]2(C)[C@H]3CC=C4[C@@H]5CC(C)(C)CC[C@]5(C(=O)NCCCCCC(=O)N[C@@H](C)C(=O)O)CC[C@@]4(C)[C@]3(C)CC[C@H]2C1(C)C
17,47.1,C[C@H](NC(=O)CCCNC(=O)[C@]12CCC(C)(C)C[C@H]1C1=CC[C@@H]3[C@@]4(C)CC[C@H](OC(=O)c5ccccc5)C(C)(C)[C@@H]4CC[C@@]3(C)[C@]1(C)CC2)C(=O)O
18,> 50,CC1(C)CC[C@]2(C(=O)NCCCCCC(=O)NCC(=O)O)CC[C@]3(C)C(=CC[C@@H]4[C@@]5(C)CC[C@H](OC(=O)CCC(=O)O)C(C)(C)[C@@H]5CC[C@]43C)[C@@H]2C1
19,40.2,C[C@H](NC(=O)CCCCCNC(=O)[C@]12CCC(C)(C)C[C@H]1C1=CC[C@@H]3[C@@]4(C)CC[C@H](OC(=O)CCC(=O)O)C(C)(C)[C@@H]4CC[C@@]3(C)[C@]1(C)CC2)C(=O)O
20,> 50,CCCCCCCCCCCC(=O)O[C@H]1CC[C@]2(C)[C@H]3CC=C4[C@@H]5CC(C)(C)CC[C@]5(C(=O)NCCCCCCCCCCC(=O)N[C@@H](C)C(=O)O)CC[C@@]4(C)[C@]3(C)CC[C@H]2C1(C)C
21,38.8,C[C@H](NC(=O)CCCCCNC(=O)[C@]12CCC(C)(C)C[C@H]1C1=CC[C@@H]3[C@@]4(C)CC[C@H](OC(=O)CCCC(=O)O)C(C)(C)[C@@H]4CC[C@@]3(C)[C@]1(C)CC2)C(=O)O
22,> 50,CCCC(=O)O[C@H]1CC[C@]2(C)[C@H]3CC=C4[C@@H]5CC(C)(C)CC[C@]5(C(=O)NCCCCCCCCCCC(=O)N[C@@H](C)C(=O)O)CC[C@@]4(C)[C@]3(C)CC[C@H]2C1(C)C
23,> 50,CC1(C)CC[C@]2(C(=O)NCCCCCCCCCCC(=O)NCC(=O)O)CC[C@]3(C)C(=CC[C@@H]4[C@@]5(C)CC[C@H](OC(=O)c6ccccc6)C(C)(C)[C@@H]5CC[C@]43C)[C@@H]2C1

row,IC50 [µM],Compound
1,> 50,CC(=O)O[C@H]1CC[C@]2(C)[C@H]3CC=C4[C@@H]5CC(C)(C)CC[C@]5(C(=O)NCCCCCC(=O)NCC(=O)O)CC[C@@]4(C)[C@]3(C)CC[C@H]2C1(C)C
2,> 50,CCCC(=O)O[C@H]1CC[C@]2(C)[C@H]3CC=C4[C@@H]5CC(C)(C)CC[C@]5(C(=O)NCCCC(=O)N[C@@H](C)C(=O)O)CC[C@@]4(C)[C@]3(C)CC[C@H]2C1(C)C
3,> 50,CC(=O)O[C@H]1CC[C@]2(C)[C@H]3CC=C4[C@@H]5CC(C)(C)CC[C@]5(C(=O)NCCCC(=O)N[C@@H](C)C(=O)O)CC[C@@]4(C)[C@]3(C)CC[C@H]2C1(C)C
4,> 50,CCCC(=O)O[C@H]1CC[C@]2(C)[C@H]3CC=C4[C@@H]5CC(C)(C)CC[C@]5(C(=O)NCCCCCCCCCCC(=O)NCC(=O)O)CC[C@@]4(C)[C@]3(C)CC[C@H]2C1(C)C
5,> 50,CC1(C)CC[C@]2(C(=O)NCCCCCC(=O)NCC(=O)O)CC[C@]3(C)C(=CC[C@@H]4[C@@]5(C)CC[C@H](OC(=O)CCCC(=O)O)C(C)(C)[C@@H]5CC[C@]43C)[C@@H]2C1
6,> 50,CC1(C)CC[C@]2(C(=O)NCCCCCCCCCCC(=O)NCC(=O)O)CC[C@]3(C)C(=CC[C@@H]4[C@@]5(C)CC[C@H](OC(=O)CCCC(=O)O)C(C)(C)[C@@H]5CC[C@]43C)[C@@H]2C1
7,3.1,CC1(C)CC[C@]2(C(=O)NCCCCCC(=O)NCC(=O)O)CC[C@]3(C)C(=CC[C@@H]4[C@@]5(C)CC[C@H](OC(=O)c6ccccc6C(=O)O)C(C)(C)[C@@H]5CC[C@]43C)[C@@H]2C1
8,2.3,CC1(C)CC[C@]2(C(=O)NCCCCCCCCCCC(=O)NCC(=O)O)CC[C@]3(C)C(=CC[C@@H]4[C@@]5(C)CC[C@H](OC(=O)c6ccccc6C(=O)O)C(C)(C)[C@@H]5CC[C@]43C)[C@@H]2C1
9,> 50,CCC(=O)O[C@H]1CC[C@]2(C)[C@H]3CC=C4[C@@H]5CC(C)(C)CC[C@]5(C(=O)NCCCCCCCCCCC(=O)N[C@@H](C)C(=O)O)CC[C@@]4(C)[C@]3(C)CC[C@H]2C1(C)C
10,> 50,CCCCCC(=O)O[C@H]1CC[C@]2(C)[C@H]3CC=C4[C@@H]5CC(C)(C)CC[C@]5(C(=O)NCCCC(=O)N[C@@H](C)C(=O)O)CC[C@@]4(C)[C@]3(C)CC[C@H]2C1(C)C
11,> 50,CCCCCCCCCCCC(=O)O[C@H]1CC[C@]2(C)[C@H]3CC=C4[C@@H]5CC(C)(C)CC[C@]5(C(=O)NCCCCCC(=O)NCC(=O)O)CC[C@@]4(C)[C@]3(C)CC[C@H]2C1(C)C
12,> 50,CC1(C)CC[C@]2(C(=O)NCCCCCC(=O)NCC(=O)O)CC[C@]3(C)C(=CC[C@@H]4[C@@]5(C)CC[C@H](OC(=O)c6ccccc6)C(C)(C)[C@@H]5CC[C@]43C)[C@@H]2C1
13,> 50,C[C@H](NC(=O)CCCNC(=O)[C@]12CCC(C)(C)C[C@H]1C1=CC[C@@H]3[C@@]4(C)CC[C@H](OC(=O)CCC(=O)O)C(C)(C)[C@@H]4CC[C@@]3(C)[C@]1(C)CC2)C(=O)O
14,40,CCCC(=O)O[C@H]1CC[C@]2(C)[C@H]3CC=C4[C@@H]5CC(C)(C)CC[C@]5(C(=O)NCCCCCC(=O)N[C@@H](C)C(=O)O)CC[C@@]4(C)[C@]3(C)CC[C@H]2C1(C)C
15,> 50,CCC(=O)O[C@H]1CC[C@]2(C)[C@H]3CC=C4[C@@H]5CC(C)(C)CC[C@]5(C(=O)NCCCC(=O)N[C@@H](C)C(=O)O)CC[C@@]4(C)[C@]3(C)CC[C@H]2C1(C)C
16,> 50,CCC(=O)O[C@H]1CC[C@]2(C)[C@H]3CC=C4[C@@H]5CC(C)(C)CC[C@]5(C(=O)NCCCCCCCCCCC(=O)NCC(=O)O)CC[C@@]4(C)[C@]3(C)CC[C@H]2C1(C)C
17,> 50,CCCC(=O)O[C@H]1CC[C@]2(C)[C@H]3CC=C4[C@@H]5CC(C)(C)CC[C@]5(C(=O)NCCCCCC(=O)NCC(=O)O)CC[C@@]4(C)[C@]3(C)CC[C@H]2C1(C)C
18,> 50,CCCCCC(=O)O[C@H]1CC[C@]2(C)[C@H]3CC=C4[C@@H]5CC(C)(C)CC[C@]5(C(=O)NCCCCCCCCCCC(=O)N[C@@H](C)C(=O)O)CC[C@@]4(C)[C@]3(C)CC[C@H]2C1(C)C
19,> 50,CCC(=O)O[C@H]1CC[C@]2(C)[C@H]3CC=C4[C@@H]5CC(C)(C)CC[C@]5(C(=O)NCCCCCC(=O)NCC(=O)O)CC[C@@]4(C)[C@]3(C)CC[C@H]2C1(C)C
20,> 50,CC1(C)CC[C@]2(C(=O)NCCCCCCCCCCC(=O)NCC(=O)O)CC[C@]3(C)C(=CC[C@@H]4[C@@]5(C)CC[C@H](OC(=O)CCC(=O)O)C(C)(C)[C@@H]5CC[C@]43C)[C@@H]2C1
21,> 50,CCCCCC(=O)O[C@H]1CC[C@]2(C)[C@H]3CC=C4[C@@H]5CC(C)(C)CC[C@]5(C(=O)NCCCCCCCCCCC(=O)NCC(=O)O)CC[C@@]4(C)[C@]3(C)CC[C@H]2C1(C)C
22,> 50,C[C@H](NC(=O)CCCNC(=O)[C@]12CCC(C)(C)C[C@H]1C1=CC[C@@H]3[C@@]4(C)CC[C@H](OC(=O)CC(C)(C)CC(=O)O)C(C)(C)[C@@H]4CC[C@@]3(C)[C@]1(C)CC2)C(=O)O
